Measurements taken from patent publication US20080194637A1, “Small organic molecule regulators of cell proliferation” (Curis, Inc., priority 2006, published 2008).
Counter-ions that a name gives are not always drawn. Like-named read-outs stand apart in the source and are kept apart here.

Experiments:
[1] = tested on: C57BL/6 male mice with DHT pellet; assay: DHT-induced alopecia mouse model of male pattern baldness; assay type: in vivo; conditions: C57BL/6 male mice with subcutaneous DHT pellet (2.5 mg 21 day), dosed topically once, visually graded for hair regrowth
Method: (§1) A mouse model of male pattern baldness is used to investigate the effectiveness of the present compounds for growing hair. Agonists for the sonic hedgehog pathway that act by binding and activating Smoothened were tested in a formulation of 50:30:20 PG:EtOH:water or 5:95 DMSO:acetone vehicle. C57BL/6 male mice (48-52 days old on arrival) from Charles River Labs were used on the study. The mice were housed and cared for according to established procedures. Food and water were ad libitum. On Day 0, the mice were shaved on their lower back, an area of ˜1.5 inches×˜2 inches with Wahl clippers using a surgical blade. On day −3, the mice were anesthetized with isoflurane, their back was rinsed with a pad of 70% ethanol, a placebo pellet or a DHT pellet (2.5 mg 21 day pellet) were implanted subcutaneously between the shoulder blades with a 10 gauge trochar. DHT pellet transplantation results in maintenance of existing hair follicles in the resting (telogen) phase. The hole was stapled with a sterile autoclip and the mice were returned to their cage after awaking. The mice were dosed topically once and visually graded daily, except weekends, for melanogenesis and hair regrowth of fur in the dosed area (Table 4).
In the absence of treatment with the present compounds, the follicles remain in telogen rather than following the normal time course of the mouse hair cycle.

C57BL/6 male mice = assay: C57BL/6 hair growth after single topical dose; assay type: in vivo, mouse; conditions: shaved lower back, dosed topically once, visually graded for melanogenesis and hair regrowth
Method: as §1

[2] = tested on: sonic hedgehog pathway, Daoy human medulloblastoma cells; assay: Human hedgehog reporter assay Daoy-GliLuc (DGL); assay type: cell-based
Description: (§2) Mouse (TM3: mouse Leydig cells; S12: mouse embryonic mesenchymal cells) and human (Daoy: human medulloblastoma cell; HepM: human embryonic palatal mesenchymal cell) cell lines are used to screen small molecules for their ability to modulate the activity of the sonic hedgehog pathway (Table 1, Table 2, and Table 3). Stable hedgehog pathway reporter cell lines are established by specific antibiotic selection following transfection of a reporter plasmid containing a luciferase gene located directly downstream from the gli promoter. Consequently, any observable changes in cellular luciferase activity may be attributed to changes in sonic hedgehog pathway activity in mouse and human cells, respectively, since gli is the major by-product of this pathway. To calculate activity, we generate an eleven point dose curve for each compound using 1:3 dilutions in 96 well assay plates. Each plate tested also contains low and high control to establish maximal pathway activation so to establish/compare a percentage activation of each tested compound (AMAX) on respective plates. Also we calculate EC50 values, or a concentration where the pathway will be exactly 50% activated, for each tested compound to determine potency. In these cell lines, compounds that register >20% AMAX values are considered active.
(§3) Stable hedgehog pathway reporter cell lines are established following specific antibiotic selection following transfection of a reporter plasmid In short, typically cells are plated in MicroTiter-plates at 10,000-20,000 cells per well, in growth media (containing 10%-20% FBS). After 48-72 hrs (HGL and DGL respectively) the media in the assay plates is switched to low-serum containing media (0.5% FBS). At that time compounds are added (at 1-5 μM) to the assay plates, in the presence or absence of hedgehog protein (octyl-modified version; 1-5 ng/ml). After another 24 hrs of incubation, the media from the assay plates is discarded and replaced with luciferase assay-mix. Subsequently, plates are incubated at RT for ˜15-30 mins and then read in a luminometer. [note: addition of the Hedgehog protein, although not critical, will sensitize the assay allowing the identification of weak actives].

[3] = tested on: sonic hedgehog pathway, S12 mouse embryonic mesenchymal cells; assay: Hedgehog pathway Gli-luciferase reporter assay in S12 cells; assay type: cell-based
Description: as §2, §3

[4] = tested on: sonic hedgehog pathway, HepM human embryonic palatal mesenchymal cells; assay: Human hedgehog reporter assay HEPM-GliLuc (HGL); assay type: cell-based; conditions: HepM human embryonic palatal mesenchymal cells, gli-luciferase reporter, Table 1
Description: as §2, §3

[5] = tested on: sonic hedgehog pathway, TM3 mouse Leydig cells; assay: Hedgehog pathway Gli-luciferase reporter assay in TM3 cells; assay type: cell-based; conditions: Table 1
Description: as §2, §3

[6] = Daoy human medulloblastoma cells, gli-luciferase reporter, Table 1, read-out: Daoy Avg. EC50
[7] = S12 mouse embryonic mesenchymal cells, Table 1, read-out: S12 Avg. EC50
[8] = Daoy human cells, Gli-Luc, Table 2, read-out: Human Daoy (Gli-Luc) Avg. EC50
[9] = S12 mouse cells, Table 2, read-out: Mouse S12 Avg. EC50

Compound | Androgenetic Alopecia [1] | C57BL/6 Hair Growth (C57BL/6 male mice) | also measured
CN[C@H]1CC[C@H](N(Cc2cc(-c3ccccc3)ccc2OC)C(=O)c2sc3ccccc3c2Cl)CC1 | yes | yes | –
CN[C@H]1CC[C@H](N(Cc2cc(-c3cc(C)nc(C)c3)ccc2OC)C(=O)c2sc3ccccc3c2Cl)CC1 | yes | yes | –
CN[C@H]1CC[C@H](N(Cc2cc(-c3ccc(C(N)=O)cc3)ccc2OC)C(=O)c2sc3c(F)ccc(F)c3c2Cl)CC1 | yes | yes | –
CN[C@H]1CC[C@H](N(Cc2cc(-c3ccnc(C)c3)ccc2OC)C(=O)c2sc3ccccc3c2Cl)CC1 | yes | yes | –
CN[C@H]1CC[C@H](N(Cc2cc(-c3ccc(N)nc3)ccc2OC)C(=O)c2sc3cccc(F)c3c2Cl)CC1 | yes | yes | –
CN[C@H]1CC[C@H](N(Cc2cc(-c3ccc(S(C)(=O)=O)cc3)ccc2OC)C(=O)c2sc3ccccc3c2Cl)CC1 | yes | yes | –
CN[C@H]1CC[C@H](N(Cc2cc(-c3ccnc(C(=O)N(C)C)c3)ccc2OC)C(=O)c2sc3c(F)ccc(F)c3c2Cl)CC1 | yes | yes | –
CNC1CCC(N(Cc2cc(-c3ccncc3)ccc2OC)C(=O)c2sc3ccccc3c2Cl)CC1 (centres unmarked) | yes | yes | –
CN[C@H]1CC[C@H](N(Cc2cc(-c3ccc(NS(C)(=O)=O)nc3)ccc2OC)C(=O)c2sc3c(F)ccc(F)c3c2Cl)CC1 | – | yes | –
CCOc1ccc(-c2ccc(C#N)cc2)cc1CN(C(=O)c1sc2ccccc2c1Cl)[C@H]1CC[C@H](NC)CC1 | – | yes | –
CN[C@H]1CC[C@H](N(Cc2cc(-c3ccnc(C(=O)OC)c3)ccc2OC)C(=O)c2sc3c(F)ccc(F)c3c2Cl)CC1 | yes | yes | –
CN[C@H]1CC[C@H](N(Cc2cc(-c3ccnc(C(=O)O)c3)ccc2OC)C(=O)c2sc3c(F)ccc(F)c3c2Cl)CC1 | – | no | –
CN[C@H]1CC[C@@H](N(Cc2cc(-c3cccnc3)ccc2OC)C(=O)c2sc3cccc(F)c3c2Cl)CC1 [360 (R16), 3-Chloro-4-fluoro-benzo[b]thiophene-2-carboxylic acid (2-methoxy-5-pyridin-3-yl-benzyl)-(4-methylamino-cyclohexyl)-amide dihydrochloride] | – | – | EC50 [2, 6]: < 50 nM; EC50 [3, 7]: < 50 nM; EC50 [4]: < 50 nM; EC50 [5]: < 50 nM
CN[C@H]1CC[C@@H](N(Cc2cc(-c3ccc(C(C)=O)cc3)ccc2OC)C(=O)c2sc3ccccc3c2Cl)CC1 [Compound 303, 3-Chloro-benzo[b]thiophene-2-carboxylic acid (4′-acetyl-4-methoxy-biphenyl-3-ylmethyl)-(4-methylamino-cyclohexyl)-amide hydrochloride] | – | – | EC50 [2, 6]: < 50 nM; EC50 [3, 7]: < 50 nM; EC50 [4]: < 50 nM; EC50 [5]: < 50 nM
CN[C@H]1CC[C@@H](N(Cc2cc(-c3cccc(SC)c3)ccc2OC)C(=O)c2sc3c(F)ccc(F)c3c2Cl)CC1 [Compound 372, 3-Chloro-4,7-difluoro-benzo[b]thiophene-2-carboxylic acid (4-methoxy-3′-methylsulfanyl-biphenyl-3-ylmethyl)-(4-methylamino-cyclohexyl)-amide hydrochloride] | – | – | EC50 [2, 8]: < 50 nM; EC50 [3, 9]: < 50 nM
CN[C@H]1CC[C@@H](N(Cc2cc(-c3ccc(SC)cc3)ccc2OC)C(=O)c2sc3c(F)ccc(F)c3c2Cl)CC1 [Compound 373, 3-Chloro-4,7-difluoro-benzo[b]thiophene-2-carboxylic acid (4-methoxy-4′-methylsulfanyl-biphenyl-3-ylmethyl)-(4-methylamino-cyclohexyl)-amide hydrochloride] | – | – | EC50 [2, 8]: < 50 nM; EC50 [3, 9]: < 50 nM
CN[C@H]1CC[C@@H](N(Cc2cc(-c3cc[n+]([O-])cc3)ccc2OC)C(=O)c2sc3c(F)ccc(F)c3c2Cl)CC1 [Compound 374, 4-(3-((3-chloro-4,7-difluoro-N-((1s,4s)-4-(methylamino)cyclohexyl)benzo[b]thiophene-2-carboxamido)methyl)-4-methoxyphenyl)pyridine 1-oxide] | – | – | EC50 [2, 8]: < 50 nM; EC50 [3, 9]: < 50 nM
CN[C@H]1CC[C@@H](N(Cc2cc(-c3cccc([S+](C)[O-])c3)ccc2OC)C(=O)c2sc3c(F)ccc(F)c3c2Cl)CC1 (some centres unmarked) [Compound 376, 3-Chloro-4,7-difluoro-benzo[b]thiophene-2-carboxylic acid (3′-methanesulfinyl-4-methoxy-biphenyl-3-ylmethyl)-(4-methylamino-cyclohexyl)-amide trifluoroacetate] | – | – | EC50 [2, 8]: < 50 nM; EC50 [3, 9]: < 50 nM
CN[C@H]1CC[C@@H](N(Cc2cc(-c3ccc([S+](C)[O-])cc3)ccc2OC)C(=O)c2sc3c(F)ccc(F)c3c2Cl)CC1 (some centres unmarked) [Compound 377, 3-Chloro-4,7-difluoro-benzo[b]thiophene-2-carboxylic acid (4′-methanesulfinyl-4-methoxy-biphenyl-3-ylmethyl)-(4-methylamino-cyclohexyl)-amide trifluoroacetate] | – | – | EC50 [2, 8]: < 50 nM; EC50 [3, 9]: < 50 nM
COc1ccc(-c2cc[n+](C)cc2)cc1CN(C(=O)c1sc2c(F)ccc(F)c2c1Cl)[C@H]1CC[C@@H](N)CC1 [Compound 418] | – | – | EC50 ([2]; Daoy human cells, gli-luciferase reporter, Table 3, read-out: Daoy Avg. EC50): < 50 nM; EC50 ([3]; S12 mouse embryonic mesenchymal cells, Table 3, read-out: S12 Avg. EC50): 1000 to 2500 nM
